Experimental data as given in ChEMBL document CHEMBL5260811, “Drug development against tuberculosis: Impact of alkaloids” (Eur J Med Chem, 2017).
Converted amounts (≈) assume the structure as drawn. Starred links: 1 amine or outer side, 2 acyl side, 3 side chain; linkers in the order of their positions; H or OH if unused. Positions of bridges follow the written chain, without caps; N, C: chain ends. Non-standard residues stand in square brackets, D forms with d. Residues, ends and D or L forms follow the SMILES beside them. ξ: configuration not given here. *: point of attachment. X2 = N=C1NCCC([C@H](N[*:1])C(=O)[*:2])N1; ΔAla(Z-3-ureido) = NC(=O)N/C=C(\N)C(=O)O; ξβ3hOrn = NCCCC(N)CC(=O)*; Dap = NC[C@H](N)C(=O)O

Assays:
[1] = test system: Mycobacterium tuberculosis; test: Antimycobacterial activity against Mycobacterium tuberculosis Rv3790 harbouring DprE1 gene; type: functional
[2] = test system: Mycobacterium tuberculosis; test: Antimycobacterial activity against Mycobacterium tuberculosis harbouring katG gene; type: functional
[3] = test system: Mycobacterium tuberculosis; test: Antimycobacterial activity against Mycobacterium tuberculosis harbouring fdxA gene; type: functional
[4] = test system: Mycobacterium tuberculosis; test: Antimycobacterial activity against Mycobacterium tuberculosis Rv1302 harbouring rfe gene; type: functional
[5] = test system: Mycobacterium tuberculosis; test: Antimycobacterial activity against Mycobacterium tuberculosis Rv1302 harbouring wecA gene; type: functional
[6] = test system: Mycobacterium tuberculosis; test: Antimycobacterial activity against Mycobacterium tuberculosis Rv2156c harbouring mraY gene; type: functional
[7] = test system: Mycobacterium tuberculosis; test: Antimycobacterial activity against Mycobacterium tuberculosis harbouring rrs gene; type: functional
[8] = test system: Mycobacterium tuberculosis; test: Antimycobacterial activity against rifampicin-resistant Mycobacterium tuberculosis; type: functional
[9] = test system: Mycobacterium tuberculosis; test: Antimycobacterial activity against Mycobacterium tuberculosis 000019 harbouring rrs gene; type: functional
[10] = test system: Mycobacterium tuberculosis; test: Antimycobacterial activity against Mycobacterium tuberculosis harbouring thyA gene; type: functional
[11] = test system: Mycobacterium tuberculosis; test: Antimycobacterial activity against Mycobacterium tuberculosis Rv0503c harbouring cmaA2 gene; type: functional
[12] = test system: Mycobacterium tuberculosis; test: Antimycobacterial activity against Mycobacterium tuberculosis Rv2068c harbouring blaC gene; type: functional
[13] = test system: Mycobacterium tuberculosis; test: Antimycobacterial activity against Mycobacterium tuberculosis Rv0050 harbouring ponA1 gene; type: functional
[14] = test system: Mycobacterium tuberculosis; test: Antimycobacterial activity against drug-resistant Mycobacterium tuberculosis; type: functional
[15] = test system: Mycobacterium tuberculosis; test: Antimycobacterial activity against Mycobacterium tuberculosis Rv1305 harbouring atpE gene; type: functional
[16] = test system: Mycobacterium tuberculosis; test: Antimycobacterial activity against extensively drug resistant Mycobacterium tuberculosis clinical isolates; type: functional
[17] = test system: Mycobacterium tuberculosis; test: Antimycobacterial activity against multi-drug resistant Mycobacterium tuberculosis clinical isolates; type: functional
[18] = test system: Mycobacterium tuberculosis; test: Antimycobacterial activity against Mycobacterium tuberculosis Rv2163c harbouring pbpB gene; type: functional
[19] = test system: Mycobacterium tuberculosis; test: Antimycobacterial activity against Mycobacterium tuberculosis Rv2163c harbouring ftsI gene; type: functional
[20] = test system: Mycobacterium tuberculosis; test: Antimycobacterial activity against Mycobacterium tuberculosis Rv0005 harbouring gyrB gene; type: functional
[21] = test system: Mycobacterium tuberculosis; test: Antimycobacterial activity against Mycobacterium tuberculosis Rv0006 harbouring gyrA gene; type: functional
[22] = test system: Mycobacterium tuberculosis; test: Antimycobacterial activity against Mycobacterium tuberculosis Rv0706 harbouring rplV gene; type: functional
[23] = test system: Mycobacterium tuberculosis; test: Antimycobacterial activity against Mycobacterium tuberculosis harbouring embCAB gene; type: functional
[24] = test system: Mycobacterium tuberculosis; test: microbe, parasite or virus in culture

## CCOC(=O)NC(=O)c1ccsc1NC(=O)c1nc2ccccc2s1
[1]
  MIC: 0.01 µg/mL (≈ 0.0266 µM)
[2]
  MIC: 0.01 µg/mL (≈ 0.0266 µM)
[3]
  MIC: 0.01 µg/mL (≈ 0.0266 µM)

## CCCCc1ccc(NC(=O)C2=CCN(C)[C@@H]([C@H](O[C@@H]3O[C@H](CN)[C@@H](O)[C@H]3O)[C@H]3O[C@@H](n4ccc(=O)[nH]c4=O)[C@H](O)[C@@H]3O)C(=O)N2C)cc1
[4]
  MIC: 1.56 µg/mL (≈ 2.27 µM)
[5]
  MIC: 1.56 µg/mL (≈ 2.27 µM)

## CCCCCCCCCC(=O)O[C@H]1[C@@H](OC)[C@H]([C@H](O[C@@H]2OC(C(=O)N[C@@H]3CCC[C@H](C)NC3=O)=C[C@@H](O)[C@H]2O)[C@H](N)O)O[C@@H]1n1ccc(=O)[nH]c1=O
[6]
  MIC: 0.12 µg/mL (≈ 0.162 µM)

## N=C1NCCC([C@@H]2NC(=O)/C(=C/NC(N)=O)NC(=O)[C@H](CNC(=O)CC(N)CCCN)NC(=O)[C@H](CO)NC(=O)[C@@H](N)CNC2=O)N1 (stereo partly drawn) (H-[Dap]S[Dap](ξβ3hOrn)[ΔAla(Z-3-ureido)][X2]; lactam 1-C)
[7]
  MIC: 1.25 µg/mL (≈ 1.87 µM)

## COc1ccc2c3c(c4cc(OC)c(OC)cc4c2c1)CN1CCCC1C3 (stereo not drawn) [(+/-)-DEOXYTYLOPHORININE]
[8]
  MIC: 6.25 µg/mL (≈ 17.2 µM)

## NCC[C@H](O)C(=O)N[C@@H]1C[C@H](N)[C@@H](O[C@H]2O[C@H](CN)[C@@H](O)[C@H](O)[C@H]2O)[C@H](O)[C@H]1O[C@H]1O[C@H](CO)[C@@H](O)[C@H](N)[C@H]1O [AMIKACIN]
[9]
  MIC: 0.12 µg/mL (≈ 0.205 µM)

## Nc1ccc(C(=O)O)c(O)c1 [AMINOSALICYLIC ACID]
[10]
  MIC: 1 µg/mL (≈ 6.53 µM)

## CC(=O)Nc1ccc(/C=N/NC(N)=S)cc1 [AMITHIOZONE]
[11]
  MIC: 0.1 µg/mL (≈ 0.423 µM)

## CC1(C)S[C@@H]2[C@H](NC(=O)[C@H](N)c3ccc(O)cc3)C(=O)N2[C@H]1C(=O)O [AMOXICILLIN]
[12]
  MIC: 10 µg/mL
[13]
  MIC: 10 µg/mL

## COc1nc2ccc(Br)cc2cc1[C@@H](c1ccccc1)[C@@](O)(CCN(C)C)c1cccc2ccccc12 [BEDAQUILINE]
[14]
  MIC: 60 µg/mL (≈ 108 µM)
[15]
  MIC: 0.063 µg/mL (≈ 0.113 µM)

## C[C@H]1COC2(CCN(c3nc(=O)c4cc(C(F)(F)F)cc([N+](=O)[O-])c4s3)CC2)O1 [BTZ-043]
[16]
  MIC: 0.001 µg/mL (≈ 0.00232 µM)
[17]
  MIC: 0.0001 µg/mL (≈ 0.000232 µM)
[1]
  MIC: 0.001 µg/mL (≈ 0.00232 µM)

## CC1(C)C[C@@H]1C(=O)N/C(=C\CCCCSC[C@H](N)C(=O)O)C(=O)O [CILASTATIN]
[18]
  MIC: 0.16 µg/mL
[19]
  MIC: 0.16 µg/mL (≈ 0.446 µM)

## O=C(O)c1cn(C2CC2)c2cc(N3CCNCC3)c(F)cc2c1=O [CIPROFLOXACIN]
[20]
  MIC: 0.125 µg/mL (≈ 0.377 µM)
[21]
  MIC: 0.125 µg/mL (≈ 0.377 µM)

## CC[C@H]1OC(=O)[C@H](C)[C@@H](O[C@H]2C[C@@](C)(OC)[C@@H](O)[C@H](C)O2)[C@H](C)[C@@H](O[C@@H]2O[C@H](C)C[C@H](N(C)C)[C@H]2O)[C@](C)(OC)C[C@@H](C)C(=O)[C@H](C)[C@@H](O)[C@]1(C)O [CLARITHROMYCIN]
[22]
  MIC: 1 µg/mL (≈ 1.34 µM)

## O=C(O)[C@H]1/C(=C/CO)O[C@@H]2CC(=O)N21 [CLAVULANIC ACID]
[12]
  MIC: 0.23 µM
[18]
  MIC: 0.23 µM
[13]
  MIC: 0.23 µM

## CC[C@@H](CO)NCCN[C@@H](CC)CO [ETHAMBUTOL]
[23]
  MIC: 1 µg/mL (≈ 4.89 µM)

## CCc1cc(C(N)=S)ccn1 [ETHIONAMIDE]
[24]
  MIC: 0.6 µg/mL (≈ 3.61 µM)

## COc1c(N2CCNC(C)C2)c(F)cc2c(=O)c(C(=O)O)cn(C3CC3)c12 (stereo not given) [GATIFLOXACIN]
[20]
  MIC: 1 µg/mL (≈ 2.66 µM)
[21]
  MIC: 1 µg/mL (≈ 2.66 µM)
